Among the test systems are PC-3; UO-31; ACHN; K562; HCT-15; NCI-H23; MDA-MB-435; EKVX; MDA-N; IGROV-1; HL-60; TK-10; SW-620; OVCAR-4; OVCAR-3; SK-MEL-2; OVCAR-5; UACC-62; SR; A498.
Experiment in all cases: NCI-60 cell line screen, 48 h

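Where inhibition never reached the appropriate level, the endpoint shown equals the highest concentration tested. Otherwise, values were interpolated linearly from a five-concentration, 48-hour dose response in 96-well plates. The concentration for 50% growth inhibition is given as GI50.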 Active and inactive are the calls of the source. Rule as the data show it: active = GI50 up to about 1.1 µM and inactive = higher. Bounds are passed on as bounds.

In the case of `CC(=O)Oc1c(C)cc(-c2cc(C)c(OC(C)=O)c(C)c2)cc1C`, the GI50 is 14.1 µM (inactive) in the experiment on PC-3; 26.9 µM (inactive) in the experiment with UO-31; 33 µM (inactive) with ACHN; > 100 µM (inactive) in the experiment with K562; 20.3 µM in the experiment on HCT-15; 15.4 µM (inactive) in the experiment on NCI-H23. The GI50 in the experiment with MDA-MB-435 was 3.05 µM (inactive); with EKVX it was 37.3 µM (inactive); with MDA-N, 4.98 µM (inactive); in the experiment with IGROV-1, 40.9 µM (inactive); in the experiment on HL-60, 35.2 µM (inactive); with TK-10 it was 30.5 µM (inactive). Besides, the GI50 in the experiment on SW-620 is 10.2 µM (inactive); in the experiment on OVCAR-4, 82.6 µM (inactive); in the experiment on OVCAR-3, 90.2 µM (inactive); with SK-MEL-2, 41.6 µM (inactive); with OVCAR-5, 43.7 µM (inactive); with UACC-62 it was 23 µM (inactive). Further, the GI50 in the experiment on SR is 75.2 µM (inactive).
For the compound `CC1=C/C(=N\O)C(C(O)(C(F)(F)F)C(F)(F)F)C(C)(C)C1` (stereo not drawn), the GI50 is > 10 µM (inactive) with PC-3; > 10 µM (inactive) with UO-31; > 10 µM (inactive) in the experiment with ACHN; > 10 µM (inactive) in the experiment with K562; > 10 µM (inactive) with A498; greater than 10 µM with HCT-15. The GI50 in the experiment with NCI-H23, in the experiment with MDA-MB-435, in the experiment with EKVX, in the experiment on MDA-N, with IGROV-1 and with TK-10 was > 10 µM (inactive) each time. Moreover, the GI50 with SW-620, in the experiment on OVCAR-4, with OVCAR-3, in the experiment with OVCAR-5, in the experiment with UACC-62 and with SR was > 10 µM (inactive) in each case.
For `Cc1ccc(NC(=O)c2cc(S(=O)(=O)N3CCNNC3=O)c(S)cc2Cl)cc1`, the GI50 with PC-3 was > 100 µM (inactive); with UO-31 it was > 100 µM (inactive); in the experiment on ACHN it was > 100 µM (inactive); with K562, 56.5 µM (inactive); with HCT-15, greater than 100 µM; in the experiment on MDA-MB-435, > 100 µM (inactive). The GI50 in the experiment on EKVX was > 100 µM (inactive); with MDA-N it was > 100 µM (inactive); with IGROV-1, > 100 µM (inactive); in the experiment with HL-60, > 100 µM (inactive); in the experiment on TK-10, 93.8 µM (inactive); with SW-620 it was > 100 µM (inactive). For the same compound, the GI50 in the experiment on OVCAR-4, in the experiment with OVCAR-3, with SK-MEL-2, in the experiment on OVCAR-5, with UACC-62 and with SR was > 100 µM (inactive) each time.
As for `OC(Cc1ccc2ccccc2n1)(C(F)(F)Cl)C(F)(F)Cl`, the GI50 in the experiment with PC-3 was > 10 µM (inactive); with UO-31 it was > 10 µM (inactive); in the experiment on ACHN, > 10 µM (inactive); in the experiment with K562 it was > 10 µM (inactive); with A498 it was > 10 µM (inactive); in the experiment on HCT-15, greater than 10 µM. Besides, the GI50 with NCI-H23, in the experiment on MDA-MB-435, in the experiment on EKVX, in the experiment on MDA-N, in the experiment with IGROV-1 and in the experiment on TK-10 was > 10 µM (inactive) throughout. Moreover, the GI50 with SW-620, with OVCAR-4, with OVCAR-3, with OVCAR-5, in the experiment with UACC-62 and with SR was > 10 µM (inactive) throughout.

These data come from ChEMBL document CHEMBL1201862, “PubChem BioAssay data set” (2004).
